{"source": "the OPERA property sets (Mansouri et al. 2018)", "data": [{"details": "not given", "units": {"boiling point": "°C", "melting point": "°C"}, "values": [{"molecule": "C#CCCCO", "boiling point": 154}, {"molecule": "CCCCC(CC)COC(=O)CCCCCCCCC(=O)OCC(CC)CCCC", "note": "(centres undefined)", "melting point": -48}, {"molecule": "CCCSCCC", "boiling point": 143, "log10 Henry constant (atm·m³/mol)": -2.49, "log10 vapour pressure (mmHg)": 0.81, "melting point": -102}, {"molecule": "CC1(C)COC1", "boiling point": 80.6}, {"molecule": "COC(=O)CCCl", "boiling point": 156}, {"molecule": "FC(Cl)C(F)(F)Br", "note": "(centres undefined)", "boiling point": 52.5}, {"molecule": "CCC(=NO)C(C)=NO", "melting point": 172}, {"molecule": "O=c1cc[nH]c2ccccc12", "melting point": 201}, {"molecule": "C[Si](C)(C)C", "boiling point": 26.6, "log10 vapour pressure (mmHg)": 2.86, "melting point": -99}, {"molecule": "O=C(O)[C@@H]1CCCN1C(=O)OCc1ccccc1", "melting point": 77}, {"molecule": "Cc1c(Cl)cccc1Nc1ncccc1C(=O)O", "melting point": 234}, {"molecule": "CN[C@H](C)[C@@H](O)c1ccc(O)cc1", "note": "(racemic)", "melting point": 153}, {"molecule": "Nc1c(Cl)cc(C(=O)O)cc1Cl", "melting point": 292}, {"molecule": "Oc1ccc(O)c(O)c1", "melting point": 140}, {"molecule": "CCOC(=O)CCC(=O)O", "melting point": 8}, {"molecule": "N#CC(C#N)=C(C#N)C#N", "melting point": 199}, {"molecule": "COCC1CCCO1", "note": "(centres undefined)", "boiling point": 140}, {"molecule": "FC(F)(F)C(F)(F)C(F)(F)C(F)(F)C(F)(F)C(F)(F)OC(F)(F)C(F)(F)C(F)(F)C(F)(F)C(F)(F)C(F)(F)F", "boiling point": 181, "melting point": -90}, {"molecule": "COc1cc(OC)cc(OC)c1", "boiling point": 256, "melting point": 54.5}, {"molecule": "C1SCSCS1", "melting point": 220}, {"molecule": "CC(C)C(=O)OC(=O)C(C)C", "boiling point": 183, "melting point": -53.5}, {"molecule": "O=C1CCCC(=O)O1", "boiling point": 287, "log10 vapour pressure (mmHg)": -2.52, "melting point": 56.3}, {"molecule": "O=C(C(Cl)Cl)N(CCO)Cc1ccc(Oc2ccc([N+](=O)[O-])cc2)cc1", "melting point": 136}, {"molecule": "O=[N+]([O-])c1ccc(S(=O)(=O)O)c([N+](=O)[O-])c1", "melting point": 108}, {"molecule": "CCOP(=S)(OCC)SCSP(=S)(OCC)OCC", "log10 Koc (L/kg)": 4.06, "log10 vapour pressure (mmHg)": -5.82, "melting point": -13}, {"molecule": "CCC(C)n1c(=O)[nH]c(C)c(Br)c1=O", "note": "(centres undefined)", "log10 Koc (L/kg)": 1.6, "log10 vapour pressure (mmHg)": -6.51, "melting point": 158}, {"molecule": "Clc1cccc(C(Cl)(Cl)Cl)c1", "boiling point": 255, "melting point": 0.6}, {"molecule": "Oc1ccc(Cl)c(Cl)c1", "boiling point": 253, "log10 Koc (L/kg)": 3.09, "melting point": 68, "ready biodegradability": "not readily biodegradable"}, {"molecule": "CCC(CC)=NO", "boiling point": 168}, {"molecule": "NCCNCCO", "boiling point": 239, "melting point": -38, "ready biodegradability": "not readily biodegradable"}, {"molecule": "COc1nccnc1CC(C)C", "log10 Henry constant (atm·m³/mol)": -4.31}, {"molecule": "FC(Cl)C(F)Cl", "note": "(centres undefined)", "boiling point": 46.8}, {"molecule": "COCCOCCOC", "boiling point": 162, "log10 vapour pressure (mmHg)": 0.471, "melting point": -68, "ready biodegradability": "not readily biodegradable"}, {"molecule": "OC(C1=CC(=C(c2ccccn2)c2ccccn2)C=C1)(c1ccccn1)c1ccccn1", "melting point": 147}, {"molecule": "COc1cc2c(c(O)c1OC)CNCC2", "melting point": 188}, {"molecule": "C(=Cc1ccncc1)c1ccccc1", "ready biodegradability": "readily biodegradable"}, {"molecule": "O=C(OC(=O)C(F)(F)C(F)(F)F)C(F)(F)C(F)(F)F", "boiling point": 73}, {"molecule": "Cc1cc(C)c([N+](=O)[O-])c(C)c1[N+](=O)[O-]", "boiling point": 418, "melting point": 85.3}, {"molecule": "C[C@]12CCC(=O)C[C@@H]1CC[C@@H]1[C@@H]2CC[C@@]2(C)[C@H]1CC[C@]2(C)O", "melting point": 192}, {"molecule": "CO/C=C(/C(=O)OC)c1ccccc1Oc1cc(Oc2ccccc2C#N)ncn1", "log10 vapour pressure (mmHg)": -12.1, "melting point": 116}, {"molecule": "O=C(Cl)CCl", "boiling point": 106, "log10 vapour pressure (mmHg)": 1.4, "melting point": -22}, {"molecule": "ClC(Cl)=CBr", "boiling point": 108, "melting point": -88.5}, {"molecule": "O=C(O)C(F)(F)C(F)(F)F", "boiling point": 96.5}, {"molecule": "COc1ccc2ccc(=O)oc2c1CC=C(C)C", "melting point": 83.5}, {"molecule": "O=C(O)c1ccc(F)c(F)c1", "melting point": 123}, {"molecule": "CCC(=O)c1ccc(O)cc1O", "melting point": 99}, {"molecule": "C=CCC(C(=O)NC(N)=O)C(C)C", "note": "(centres undefined)", "melting point": 194}, {"molecule": "C=Cc1ccccc1C=C", "ready biodegradability": "not readily biodegradable"}, {"molecule": "CC(C)(C)SSC(C)(C)C", "melting point": -5}, {"molecule": "BrC(Br)Br", "boiling point": 149, "log10 Henry constant (atm·m³/mol)": -3.27, "log10 Koc (L/kg)": 2.06, "log10 vapour pressure (mmHg)": 0.732, "melting point": 8, "ready biodegradability": "not readily biodegradable"}, {"molecule": "CCOc1cc(Cl)c(N)c(Cl)c1", "boiling point": 275, "melting point": 46}, {"molecule": "CCCOCC(C)OCC(C)O", "note": "(centres undefined)", "boiling point": 212, "melting point": 7.08}, {"molecule": "OCC(F)(F)C(F)(F)C(F)(F)CO", "melting point": 79.5}, {"molecule": "CCCCCCCCCCCCCCCC(=O)OC(=O)CCCCCCCCCCCCCCC", "melting point": 64}, {"molecule": "Cc1ccc(/N=C/N(C)/C=N/c2ccc(C)cc2C)c(C)c1", "log10 Henry constant (atm·m³/mol)": -5.01, "log10 Koc (L/kg)": 3, "log10 vapour pressure (mmHg)": -5.7, "melting point": 86}, {"molecule": "N#CCNCC#N", "log10 vapour pressure (mmHg)": -2.47, "melting point": 70}, {"molecule": "CCCC[N+](=O)[O-]", "boiling point": 153, "log10 vapour pressure (mmHg)": 0.579, "melting point": -81.3}, {"molecule": "O=[N+]([O-])N1CCCCC1", "boiling point": 245, "melting point": -5.5}, {"molecule": "CC(C)OC(=O)c1ccco1", "boiling point": 198}, {"molecule": "O=Cc1ccc([N+](=O)[O-])cc1", "melting point": 107}, {"molecule": "O=[N+]([O-])CC(O)C(Cl)(Cl)Cl", "note": "(centres undefined)", "melting point": 45.5}, {"molecule": "COc1cc2c(c(O)c1OC)[C@H](C)NCC2", "melting point": 160}, {"molecule": "Brc1ccsc1", "boiling point": 150, "log10 vapour pressure (mmHg)": 1.22}, {"molecule": "CCCC(C)C(C)=O", "note": "(centres undefined)", "boiling point": 144}, {"molecule": "O=C1C(Cl)=C(Nc2ccccc2)C(=O)c2ccccc21", "melting point": 215}, {"molecule": "Clc1ccc(-c2c(Cl)c(Cl)c(Cl)c(Cl)c2Cl)c(Cl)c1Cl", "log10 Henry constant (atm·m³/mol)": -4.96}, {"molecule": "Fc1nc(F)c(Cl)c(F)n1", "boiling point": 114}, {"molecule": "CC[SiH2]CC", "boiling point": 57, "melting point": -134}, {"molecule": "CCOCCCl", "boiling point": 108}, {"molecule": "C=C(C)CC(C)O", "note": "(centres undefined)", "boiling point": 129}, {"molecule": "Cc1cccc2ccoc12", "boiling point": 190, "melting point": 109}, {"molecule": "O=C1CCC(=O)N1", "boiling point": 288, "log10 vapour pressure (mmHg)": -4.12, "melting point": 126}, {"molecule": "Oc1ncnc2[nH]ncc12", "melting point": 350}, {"molecule": "CC(C)C(Br)C(=O)NC(N)=O", "note": "(centres undefined)", "melting point": 154}, {"molecule": "FC(F)OC(F)F", "boiling point": 6.35, "melting point": -123}, {"molecule": "CCOc1ccccc1C=O", "boiling point": 248, "melting point": 21}, {"molecule": "Nc1c(Br)cc(Br)c2c1C(=O)c1ccccc1C2=O", "melting point": 221}, {"molecule": "O=C(O)[C@H]1CC[C@H]1C(=O)O", "melting point": 131}, {"molecule": "CC(C)CCCCCOC(=O)C(C)Oc1ccc(Cl)cc1Cl", "note": "(centres undefined)", "log10 vapour pressure (mmHg)": -5.47, "melting point": -37}, {"molecule": "CC1(C)OCC(CO)O1", "note": "(centres undefined)", "log10 vapour pressure (mmHg)": 2.03}, {"molecule": "Cc1[nH]ncc1Br", "melting point": 76.5}, {"molecule": "Cc1ccc(C#N)c(=O)[nH]1", "ready biodegradability": "readily biodegradable"}, {"molecule": "CCCC(C)=C(CC)C(C)=O", "boiling point": 190}, {"molecule": "CC1OC(C)OC(C)O1", "note": "(centres undefined)", "boiling point": 124, "log10 vapour pressure (mmHg)": 1.04, "melting point": 12.6, "ready biodegradability": "not readily biodegradable"}, {"molecule": "O=C(O)c1ccc(C(=O)O)cc1", "log10 vapour pressure (mmHg)": -5.04, "ready biodegradability": "readily biodegradable"}, {"molecule": "NNc1cccc2ccccc12", "melting point": 117}, {"molecule": "CN(C)CCN1C(=O)c2ccccc2Nc2cc(Cl)ccc21", "melting point": 166}, {"molecule": "CCNc1nc(Cl)nc(N(CC)CC)n1", "log10 Koc (L/kg)": 2.76, "melting point": 101}, {"molecule": "C=C(c1ccccc1)c1ccccc1", "boiling point": 277, "log10 vapour pressure (mmHg)": -1.88, "melting point": 8.2}, {"molecule": "CCN(CC)CC(O)CN", "note": "(centres undefined)", "boiling point": 223}, {"molecule": "Clc1ccccn1", "boiling point": 170, "log10 vapour pressure (mmHg)": 0.338, "melting point": -46.5, "ready biodegradability": "not readily biodegradable"}, {"molecule": "CCNP(=S)(OC)O/C(C)=C/C(=O)OC(C)C", "note": "(centres undefined)", "log10 vapour pressure (mmHg)": -4.84}, {"molecule": "CC(O)CCO", "note": "(centres undefined)", "boiling point": 208, "log10 vapour pressure (mmHg)": -1.7}, {"molecule": "CC1=C(C)CCC1", "boiling point": 106, "melting point": -90.4}, {"molecule": "CCC(=O)Nc1ccccc1", "boiling point": 222, "melting point": 106, "ready biodegradability": "not readily biodegradable"}, {"molecule": "CCOC(=O)[C@H](O)[C@@H](O)C(=O)OCC", "boiling point": 280, "melting point": 17}, {"molecule": "COc1nsnc1NS(=O)(=O)c1ccc(N)cc1", "melting point": 150}, {"molecule": "O=[N+]([O-])c1c(Cl)cccc1Cl", "melting point": 72.5}, {"molecule": "O=C(C(=O)c1cc(Br)ccc1O)c1cc(Br)ccc1O", "melting point": 212}, {"molecule": "CCN1CCOCC1", "boiling point": 138, "log10 vapour pressure (mmHg)": 0.702, "melting point": -64, "ready biodegradability": "not readily biodegradable"}, {"molecule": "Cc1ccc(C)o1", "boiling point": 93.5, "melting point": -62.8}, {"molecule": "O=S(=O)(Cl)c1ccc(F)cc1", "melting point": 30}, {"molecule": "CCC(Br)(Br)CBr", "boiling point": 214}, {"molecule": "CC(C)COC(C)OCC(C)C", "boiling point": 171}, {"molecule": "COc1cc(OC)c(OC)cc1C=O", "melting point": 114}, {"molecule": "CC[C@@H](O)[C@@H]1CCCCN1", "boiling point": 226, "melting point": 121}, {"molecule": "CCOC(=O)c1cccc(Br)c1", "boiling point": 261}, {"molecule": "CC(C)CCOc1ccc(NC(=S)Nc2ccc(OCCC(C)C)cc2)cc1", "melting point": 146}]}, {"details": "fish", "values": [{"molecule": "CCC(C)n1c(=O)[nH]c(C)c(Br)c1=O", "note": "(centres undefined)", "log10 BCF": 0.51, "log10 biotransformation half-life (days)": -1.33}, {"molecule": "Oc1ccc(Cl)c(Cl)c1", "log10 BCF": 1.69, "log10 biotransformation half-life (days)": -0.92}, {"molecule": "NCCNCCO", "log10 BCF": 0.46}, {"molecule": "BrC(Br)Br", "log10 BCF": 1.13, "log10 biotransformation half-life (days)": -0.7}, {"molecule": "Clc1ccc(-c2c(Cl)c(Cl)c(Cl)c(Cl)c2Cl)c(Cl)c1Cl", "log10 biotransformation half-life (days)": 2.54}, {"molecule": "CC1OC(C)OC(C)O1", "note": "(centres undefined)", "log10 BCF": 0.48}, {"molecule": "Clc1ccccn1", "log10 BCF": 1.28, "log10 biotransformation half-life (days)": -0.85}]}]}
